Test results from patent US12043602B2, “Fendiline derivatives” (The Board of Regents of the University of Texas System, priority 2019, dated 2024).
Entries after “also recorded” stand apart in the source; their conditions may differ.

Experiments:
[1] = test system: MiaPaCa-2 tumors; assay: In vivo tumor growth assay (xenograft); set-up: species or system nu/nu mice; details: for growth of MiaPaCa-2 xenografts: intraperitoneally, once daily 5 days on / 2 days off, doses 1-12.5 mg/kg; for minimum effective dose on tumor growth relative to fendiline: MiaPaCa2 xenografts in nude mice
Experimental: In Vivo Tumor Growth Assay. All animal studies were performed under an Institutional Animal Care and Use Committee (IACUC) approved animal protocol (AWC-15-0101), in accordance with the National Institutes of Health Guide for the Care and Use of Laboratory Animals. Early passage MiaPaCa-2 cells were harvested, and 2×10^6 cells were implanted into the right flanks of female nu/nu mice. The animals were randomized into control and treated groups (10 mice per group). Tumor volume (V) was measured with an external caliper every 3-4 days and it was calculated as V=0.52 (length×width2). Compound treatment was initiated when the tumor sizes reached 100 mm3. Compounds (12.5 mg/kg) were injected daily intraperitoneally for 5 days, with 2 days of no treatment in between. All treatments were continued until any of the subcutaneous tumors reached 1500 mm3 in volume, when all the animals were sacrificed, and the tumors removed.
Early passage BxPC-3 or MIAPaCa-2 cells were harvested, and 2-3X106 cells were implanted into the right flanks of nu/nu mice. The animals were randomized into control and treated groups (10 mice per group). Tumor volume (V) was measured with an external caliper every 3-4 days and it was calculated as V=0.52 (length×width2). Drug treatment was initiated 4 days after tumor implantation. Drugs were injected daily intraperitoneally (at doses indicated) for 5 days, with 2 days of no treatment in between. All treatments were continued until any of the subcutaneous tumors reached 1500 mm3 in volume or for 6 weeks (whichever was first), when all the animals were sacrificed and the tumors removed.
Next the effect of the selected PMLIs on the growth of oncogenic KRAS expressing MiaPaCa-2 cells implanted subcutaneously into the flanks of nu/nu immunosuppressed mice was determined. […] The animals were randomized into control and PMLI-treated groups (10 mice per group). Treatment was initiated when the tumors reached a mean volume of 100 mm^3. PMLIs were tested at 12.5, 7.5, 5, 2.5 and 1 mg/kg doses, administered once daily intraperitoneally for 5 days, with 2 days of no treatment in between for the duration of the experiment. […] There was no observed toxicity detected in any of the compound-treated groups during the experiment and, accordingly, there was no significant difference in the body weight of the animals in the different groups.

[2] = biological target: SMPD1-GFP (ASM) (Homo sapiens (Human), UniProt P17405); assay: Western blot of SMPD1-GFP levels; format: cell-based; details: 5 μM compounds for 48 h
Experimental: FIG. 6A-C. (A) Dose response curves quantifying the extent of KRASG12V and LactC2 mislocalization after 48 h treatment with compounds. Mislocalization was quantified using Manders coefficients as the fraction of mCherry-CAAX co-localizing with mGFP-KRASG12V or GFP-LactC2. (B) ASM activity in cell stably expressing GFP-tagged SMPD1 treated with DMSO or 5 μM compound for 48 h. (C) Representative western blots and quantitation of SMPD1-GFP levels in cells treated with 5 μM compounds for 48 h. (D) Representative confocal images of MDCK cells stably co-expressing mGFP-KRASG12V and mCherry-CAAX treated with 10 μM compound 6 or 1 μM of compounds 12f (NY0244), 12h (NY0331) or 22 (NY0335) for 48 h (-ASM), then incubated with recombinant ASM in the continued presence of drugs for a further 60 min (+ASM). Mislocalization was quantified using Manders coefficients as the fraction of mCherry-CAAX co-localizing with mGFP-KRASG12V.
Western Blotting. […] Signals were detected by enhanced chemiluminescence (Thermo Fisher Scientific) and imaged using a FluorChemQ imager (Alpha Inotech). Quantification of intensities was performed using FluorChemQ software.

[3] = test system: cleaved caspase 3 (CC3); assay: Immunohistochemistry of tumor sections, cleaved caspase 3; set-up: species or system nu/nu mice; details: mouse, in vivo
Experimental: Immunohistochemistry. 4-5 μm sections were deparaffinized, rehydrated, and treated with 10 mM sodium citrate for heat induced antigen retrieval. After quenching endogenous peroxidase, and blocking with 2.5% normal goat serum (Vector Laboratories S-1012), sections were incubated overnight at 4° C. with primary antibody diluted in blocking solution as recommended by manufacturer (Cell Signaling). Controls were incubated with diluted normal rabbit IgG. After incubation with biotinylated secondary antibody diluted 1:250 in blocking serum for 45 min at rt, sections were incubated with VECTASTAIN ABC reagent for 30 min, and for development of the DAB chromogen the Quanto substrate was used. Slides were counter stained with Hematoxylin. Five fields per stained section per xenograft were photographed at 10X. CC3+ and pERK+ area and number of events per field were quantitated via automated image analysis (NIS Elements BR analysis ver. 4.13.04). Vessel number and lumen area per field used the same software with manual settings to trace vessel wall contours. Antibodies used are as follows: CC3: Cell Signaling #9661, use at 1:300. […]

Row | Compound | cellular levels of ASM (SMPD1-GFP) [2] | minimum effective dose on tumor growth relative to fendiline [1] | cleaved caspase 3 (CC3) in tumors [3] | also measured
1 | CC(NCCC(c1ccccc1)c1ccccc1)c1ccccc1 (centres unmarked) [Fendiline] |  |  |  | MiaPaCa2 xenograft size ([1]; 12.5 mg/kg intraperitoneally, days 28, 32 and 35): significantly smaller; growth of MiaPaCa-2 xenografts [1]: inhibits the growth
2 | COc1ccc([C@@H](C)N(CC=C(c2ccccc2)c2ccccc2)CCN2CCN(C)CC2)cc1 [NY0244, (R)-N-(1-(4-methoxyphenyl)ethyl)-N-(2-(4-methylpiperazin-1-yl)ethyl)-3,3-diphenylprop-2-en-1-amine] | reduced the levels of ASM | more potent than fendiline |  | 
3 | COc1ccc([C@@H](C)N(CC=C(c2ccccc2)c2ccccc2)CCN2CCCC2)cc1 [NY0331, (R)-N-(1-(4-methoxyphenyl)ethyl)-3,3-diphenyl-N-(2-(pyrrolidin-1-yl)ethyl)prop-2-en-1-amine] | reduced the levels of ASM | more potent than fendiline | increased | tumor growth at 1 mg/kg ([1]; 1 mg/kg intraperitoneally): significantly inhibited tumor growth; growth of MiaPaCa-2 xenografts ([1]; listed as 12h): suppressed; also recorded: strikingly decreased the rate of growth
4 | COc1ccc([C@@H](C)N(CC=C(c2ccccc2)c2ccccc2)CCCN2CCN(C)CC2)cc1 [NY0335, (R)-N-(1-(4-methoxyphenyl)ethyl)-N-(3-(4-methylpiperazin-1-yl)propyl)-3,3-diphenylprop-2-en-1-amine] |  |  | increased | growth of MiaPaCa-2 xenografts ([1]; listed as 22): suppressed; also recorded: strikingly decreased the rate of growth
